From PMC12152945, “Computational Design of Lysine Targeting Covalent Binders Using Rosetta” (Journal of Chemical Information and Modeling, 2025)

Experiments:
MKK7 = target: T1, MKK7 (Homo sapiens, UniProt O14733); assay: radiometric […] kinase assay ([…]PanQinase); type: biochemical; conditions: 3 μM ATP, 75.6 nM MKK7, JNK1 K55R K56R substrate; 3 mM MgCl2, 3 mM MnCl2, pH 7.5, 30 °C; 30 min preincubation; reversible covalent (imine, Lys221)
T1 construct: gene MAP2K7; GST or His-tagged kinase from Reaction Biology (33PanQinase assay)
T1 sequence (O14733 2-419): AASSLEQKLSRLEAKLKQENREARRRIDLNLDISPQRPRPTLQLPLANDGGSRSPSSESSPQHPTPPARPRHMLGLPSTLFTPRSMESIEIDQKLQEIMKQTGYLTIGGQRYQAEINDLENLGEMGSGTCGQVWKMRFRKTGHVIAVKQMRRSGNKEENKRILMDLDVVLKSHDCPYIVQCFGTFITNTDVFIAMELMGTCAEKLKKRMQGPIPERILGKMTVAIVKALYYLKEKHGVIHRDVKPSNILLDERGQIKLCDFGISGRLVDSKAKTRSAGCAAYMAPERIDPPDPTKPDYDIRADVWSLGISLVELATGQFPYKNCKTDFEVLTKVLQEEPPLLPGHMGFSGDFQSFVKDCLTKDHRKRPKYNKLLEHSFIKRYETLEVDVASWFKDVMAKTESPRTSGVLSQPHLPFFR

MKK7 kinase domain = target: T2, MKK7 kinase domain (Homo sapiens, UniProt O14733); assay: intact protein LC/MS; type: binding; conditions: covalent, reversible imine trapped with 5 mM NaBH4; 2 μM protein, HEPES pH 7.5, overnight 4 °C
T2 construct: gene MAP2K7; His-tagged kinase domain for intact-protein LC/MS
T2 sequence (O14733 117-419 limits assumed): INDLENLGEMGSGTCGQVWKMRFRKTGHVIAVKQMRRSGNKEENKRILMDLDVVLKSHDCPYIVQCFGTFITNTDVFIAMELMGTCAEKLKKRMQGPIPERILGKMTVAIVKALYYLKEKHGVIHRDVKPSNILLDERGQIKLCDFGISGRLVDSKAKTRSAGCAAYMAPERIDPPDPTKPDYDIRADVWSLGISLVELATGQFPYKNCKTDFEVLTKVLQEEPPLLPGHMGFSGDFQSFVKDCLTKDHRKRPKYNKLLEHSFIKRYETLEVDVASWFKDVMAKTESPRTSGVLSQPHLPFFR

O=Cc1ccc(-c2n[nH]c3ccccc23)cc1O [compound 1]
IC50 (MKK7): 738 nM
intact protein LC/MS (MKK7 kinase domain): Significant labeling was detected only after the reduction of the complex
